Measurements reported in patent US11028051B2, “Tetrahydroquinoline-based bromodomain inhibitors” (St. Jude Children's Research Hospital, priority 2016, dated 2021).
Where two headings read alike, the source gives them in different places.

What was measured:
BRD3-BD1 = BRD3-BD1 (Homo sapiens (Human), UniProt Q15059); assay: competitive TR-FRET assay, BET-BD with acetylated peptide ligand; type: binding
Method: (§1) Inhibitor potency was determined using a competitive TR-FRET assay as detailed herein, measuring interaction of the respective BET-BD with an acetylated peptide ligand (Table 2).

BRD4-BD1 = BRD4-BD1 (Homo sapiens (Human), UniProt O60885); assay: as above; type: binding; conditions: Table 4; read-out: EC50 (μM) BRD4(1)
Method: as §1

BRD4-BD2 = BRD4-BD2 (Homo sapiens (Human), UniProt O60885); assay: as above; type: binding
Method: as §1

BRD2-BD2 [1] = biological target: T1, BRD2-BD2 (Homo sapiens (Human), UniProt P25440); assay: as above; type: binding; conditions: for EC50: read-out: EC50 (μM) BRD2(2)
Method: as §1
Target sequence in this assay (P25440 344-453): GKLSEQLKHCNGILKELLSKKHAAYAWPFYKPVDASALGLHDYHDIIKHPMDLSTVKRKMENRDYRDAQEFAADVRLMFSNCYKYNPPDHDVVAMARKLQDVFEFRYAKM

BRD2-BD1 [2] = biological target: T2, BRD2-BD1 (Homo sapiens (Human), UniProt P25440); assay: as above; type: binding; conditions: read-out: EC50 (μM) BRD2(1)
Method: as §1
Target sequence in this assay (P25440 74-180): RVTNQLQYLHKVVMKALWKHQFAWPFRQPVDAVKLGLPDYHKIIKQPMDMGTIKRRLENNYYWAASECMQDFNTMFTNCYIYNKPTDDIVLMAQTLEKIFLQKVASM

BRDT = BRDT (Homo sapiens, UniProt Q58F21); assay: as above; type: binding
Method: as §1

[3] = tested on: neural crest tumor cell lines; assay: activity versus neural crest tumor cell lines; type: cell-based; conditions: several neural crest tumor cell lines; read-out: IC50 ranges
BRD4(2) = BRD4(2) (Homo sapiens (Human), UniProt O60885); assay: BROMOscan KD determination; type: binding
Excerpt: (§2) DiscoverX® can screen compounds against all ˜42 bromodomains (a service called BROMOscan) and perform follow-up KD determination. This service is considered the industrial standard for bromodomain inhibitor comparisons.

BRD3(2) = BRD3(2) (Homo sapiens (Human), UniProt Q15059); assay: BROMOscan KD determination; type: binding
BRD3(2), sequence (Q15059 306-415): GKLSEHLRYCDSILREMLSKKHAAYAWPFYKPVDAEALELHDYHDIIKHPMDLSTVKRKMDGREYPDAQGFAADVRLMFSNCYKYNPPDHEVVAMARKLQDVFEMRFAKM
Excerpt: as §2

BRD4(1) = BRD4(1) (Homo sapiens (Human), UniProt O60885); assay: BROMOscan KD determination; type: binding; conditions: Table 10
Excerpt: as §2

BRD3(1) = BRD3(1) (Homo sapiens (Human), UniProt Q15059); assay: BROMOscan KD determination; type: binding; conditions: Table 10
BRD3(1), sequence (Q15059 34-140): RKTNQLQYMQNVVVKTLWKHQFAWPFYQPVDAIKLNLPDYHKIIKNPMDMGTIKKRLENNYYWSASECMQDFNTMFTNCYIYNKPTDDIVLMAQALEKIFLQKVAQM
Excerpt: as §2

MV-4-11 = assay: anti-proliferative activity; type: cell-based; conditions: Homo sapiens, MV4-11; Table 7
Method: (§3) After 7 days of treatment, an equal volume of CellTiter-Glo reagent (G7572, Promega) was added and the luminescence signal was measured using an automated Envision plate reader (Perkin-Elmer). Luminescence data were normalized by log10 transformation prior to calculating the percent inhibition using the following equation:
(§4) 100*(negative control mean −compound value)/(negative control mean −positive control mean).

SEM cells = assay: anti-proliferative activity; type: cell-based; conditions: Table 5
Method: as §3, §4

NALM-16 = assay: anti-proliferative activity; type: cell-based; conditions: NALM16; Table 5
Method: as §3, §4

Loucy = assay: anti-proliferative activity; type: cell-based; conditions: Table 5
Method: as §3, §4

BRD2-BD2 [4] = biological target: T1, BRD2-BD2; assay: isothermal titration calorimetry analysis of binding; conditions: ITC, BRD2(2); read-out: KD (ITC)
Target sequence in this assay (P25440 348-455): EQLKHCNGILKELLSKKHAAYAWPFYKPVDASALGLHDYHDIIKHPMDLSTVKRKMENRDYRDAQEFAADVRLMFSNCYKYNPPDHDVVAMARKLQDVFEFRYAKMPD

BRD2-BD1 [5] = biological target: T2, BRD2-BD1; assay: as above; conditions: ITC, BRD2(1); read-out: KD (ITC)
Outline: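 ITC was run in 50 mM HEPES pH 7.0 with 150 mM NaCl, using BRD2 BD1 (74-194) or BD2 (348-455) titrated from the syringe into compound in the cell. Injections were one of 1 μL followed by 19 of 2 μL at 120 s intervals, excluding the first. Data were fitted with an independent sites model.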
Target sequence in this assay (P25440 74-194): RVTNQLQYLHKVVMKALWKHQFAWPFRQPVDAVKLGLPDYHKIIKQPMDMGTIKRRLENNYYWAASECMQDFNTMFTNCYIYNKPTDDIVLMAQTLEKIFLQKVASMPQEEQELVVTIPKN

HDMB03 cells = assay: cell viability, CellTiter-Glo; type: cell-based, human; conditions: Homo sapiens, read-out: EC50 (μM) HDMB03
Outline: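 Medulloblastoma cells grown as neurospheres in supplemented neurobasal medium and treated for 7 days; viability read by CellTiter-Glo luminescence. Log10-transformed signal normalized to negative and positive controls; median percent inhibition of triplicates fitted with a four-parameter log-logistic model.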

BRD3-BD1, sequence (Q15059 34-140): as the sequence (Q15059 34-140) above

- EC50 (BRD3-BD1; Table 4, read-out: BRD3(1)): 1.1 µM
- EC50 (BRD3-BD1; Table 6, read-out: EC50 (μM) BRD3(1)): 1.1 µM
- EC50 (BRD3-BD1; Table 8, read-out: BRD3(1)): 1.1 µM
- EC50 (BRD4-BD1): 0.43 µM
- 4(1)/4(2) (BRD4-BD2; Table 4, ratio of EC50): 20.5
- EC50 (BRD4-BD2; Table 4, read-out: EC50 (μM) BRD4(2)): 0.021 µM
- [2(1)/2(2)] (BRD2-BD2 [1]; Table 4, ratio of EC50): 19.5
- EC50 (BRD2-BD2 [1]; Table 4): 0.022 µM
- [2(1)/2(2)] (BRD2-BD2 [1]; Table 6, ratio of EC50): 14.2
- EC50 (BRD2-BD2 [1]; Table 6): 0.11 µM
- EC50 (BRD2-BD2 [1]; Table 8): 0.11 µM
- EC50 (BRD2-BD1 [2]; Table 4): 0.43 µM
- EC50 (BRD2-BD1 [2]; Table 6): 1.56 µM
- EC50 (BRD2-BD1 [2]; Table 8): 1.56 µM
- EC50 (BRDT; Table 4, read-out: BRDT EC50): 4000 nM
- EC50 (BRDT; Table 6, head names no target, BRDT by comparison with Table 4, read-out: EC50): 4000 nM
- EC50 (BRDT; Table 8, head names no target, BRDT by comparison with Table 4, read-out: EC50): 4000 nM
- IC50 [3]: 50 to 200 nM
- 4(1)/4(2) (BRD4(2); BROMOscan KD ratio): 64.3
- Kd (BRD4(2); BROMOscan, Table 10): 0.42 nM
- 3(1)/3(2) (BRD3(2); BROMOscan KD ratio): 1.8
- Kd (BRD3(2); BROMOscan, Table 10): 0.39 nM
- Kd (BRD4(1)): 27 nM
- Kd (BRD3(1)): 0.72 nM
- EC50 (MV-4-11): 0.016 µM
- Kd (BRD2-BD2 [4]): < 1 nM
- Kd (BRD2-BD1 [5]): 25 nM
SMILES: COC(=O)c1ccc(N[C@@H]2C[C@H](C)N(C(C)=O)c3ccc(-c4cccc(NC(C)=O)c4)cc32)cc1 [compound 4]
- EC50 (SEM cells): 0.02 µM
- EC50 (NALM-16): 0.35 µM
- EC50 (Loucy): 0.39 µM
- EC50 (HDMB03 cells; HD-MB03, Table 5): 0.31 µM
- EC50 (HDMB03 cells; HD-MB03, Table 7): 0.75 µM
- EC50 (HDMB03 cells; HD-MB03, Table 9, cancer cell proliferation inhibition): 0.75 µM
